Data taken from patent US20090281110A1, “Method of Treatment” (priority 2006, published 2009).

How the values were obtained:
[1] = system: rat estrogen opposition model; test: Rat Model of Estrogen Opposition: Uterotrophic Model Assay; type: in vivo; settings: 30 mg/kg/day
Procedure: A rat estrogen opposition model (Lundeen, S. G. et al., (2001) Rat Uterine Complement C3 Expression as a Model for Progesterone Receptor Modulators: Characterization of the New Progestin Trimegestone. J. Steroid Biochem. & Mol. biol. 78, 137-143, incorporated herein to the extent required to perform the present assay) was used to determine the efficacy of Example 2f at 30 mg/kg/day. This was a 48 hour rodent model involving a pre-treatment of compound followed by two days of combined estrogen (0.08 mg/kg) and compound treatment. At termination, uteri were removed from the rats weighed and sectioned for downstream biochemical analysis. Estrogen in this model was pro-inflammatory, inducing edema and infiltration of neutrophils into the endometrium causing a 4 to 5 fold increase in uterine weight. A significant effect of compound treatment on uterine weight was considered approximately a 25% decrease.

[2] = biological target: T1, recombinant human IL-8 type α and β receptors (Homo sapiens, UniProt P25025); test: Receptor Binding Assay ([125I] IL-8 / GRO-α displacement, CHO membranes); settings: receptor subtype (IL-8Rα or IL-8Rβ) not given
T1 sequence (P25025 1-360): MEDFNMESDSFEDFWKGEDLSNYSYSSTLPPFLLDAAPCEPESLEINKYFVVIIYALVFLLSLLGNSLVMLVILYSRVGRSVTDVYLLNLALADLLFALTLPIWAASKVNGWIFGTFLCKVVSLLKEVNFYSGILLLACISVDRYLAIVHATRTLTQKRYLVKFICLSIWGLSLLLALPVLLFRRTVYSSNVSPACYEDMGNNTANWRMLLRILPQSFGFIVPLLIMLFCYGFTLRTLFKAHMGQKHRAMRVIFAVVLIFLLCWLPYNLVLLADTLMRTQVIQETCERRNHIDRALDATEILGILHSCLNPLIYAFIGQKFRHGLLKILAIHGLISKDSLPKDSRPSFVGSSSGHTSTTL

| SMILES | gene expression level of MMP-9 reduced compared to vehicle control and estrogen treated rats ([1]; rat uterus) [%] | gene expression of C3 reduced compared to estrogen only treatment ([1]; rat uterus) [%] | gene expression of cfos reduced compared to estrogen only treatment ([1]; rat uterus) [%] | reduced estrogen-induced uterine wet weight ([1]; rat, 48 hour model, estrogen 0.08 mg/kg) [%+/−5%] | IC50 [2] |
| --- | --- | --- | --- | --- | --- |
| CN1CCN(S(=O)(=O)c2c(Cl)ccc(NC(=O)Nc3cccc(F)c3Cl)c2O)CC1.Cc1ccc(S(=O)(=O)O)cc1 [Example 2f, N-[4-chloro-2-hydroxy-3-(4-methyl-piperazine-1-sulfonyl)-phenyl]-N′-(2-chloro-3-fluorophenyl)-urea p-toluenesulfonate] | 50 | 84 | 50 | 66 | – |
| Cl.O=C(Nc1ccc(Cl)c(S(=O)(=O)N2CCNCC2)c1O)Nc1cccc(F)c1Cl [Example 1, N-[4-chloro-2-hydroxy-3-(piperazine-1-sulfonyl)phenyl]-N′-(2-chloro-3-fluorophenyl)urea hydrochloride] | – | – | – | – | about 13 nM |
